Laboratory results as given in US20230181562A1, “USE OF A MULTIFUNCTIONAL LIGAND FOR TREATING DRY EYES, MEIBOMIAN GLAND DYSFUNCTIONS AND LACRIMAL GLAND DYSFUNCTIONS” (H4 ORPHAN PHARMA, priority 2020, published 2023).
Read-outs that look alike come from different tables or passages of the source. Where no end group is shown, it is not given here.

Assays:
basophils = test: Flow CAST basophil degranulation (CD63+/CCR3+ flow cytometry); assay type: cell-based, human
From the text: The inventors have used the Kit-Flow CAST (www.buhlmannlabs.ch/products-solutions/cellular-allergy/flow-cast/) to test the action of tritoqualine on the inhibition of basophil degranulation. The marker for degranulation is CD63. Upon basophil activation, CD63 markers bound to intracytoplasmic granules will fuse with the plasma membrane. They are then expressed on the cell surface: activated basophils thereby become CD63+. Further to CD63, another marker specific to basophils makes it possible to better target them, it is CCR3 (chemokine receptor 3). The latter is always expressed by this cell type. Thus, the degranulation of basophils is identified in the flow cytometry window as CD63+ and CCR3+.
In a first step 2 patients have been sampled. substance P has been tested at a dose of 10 μmoles.
After 30 minutes, degranulation in each of the tubes is around 7% as with the negative control.

NK 1 receptor = molecular target: T1, NK 1 receptor (Homo sapiens, UniProt P25103); test: NK 1 receptor binding (method of Heuillet et al.); conditions: FIG. 8
T1 construct: human NK1 tachykinin receptor in the astrocytoma cell line U 373 MG; endogenous in cells; host or cells: U 373 MG human astrocytoma cells (per the cited method)
Experimental: Tritoqualine has been tested on the NK 1 receptor according to the method described by Heuillet et al., Characterization of a human NK1 tachykinin receptor in the astrocytoma cell line U 373 MG. Heuillet E et al. Neurochem. 1993 March.

histidine decarboxylase = molecular target: T2, histidine decarboxylase (Homo sapiens, UniProt P19113); conditions: known anti-allergic activity; cited from earlier work
T2 sequence (P19113 1-662): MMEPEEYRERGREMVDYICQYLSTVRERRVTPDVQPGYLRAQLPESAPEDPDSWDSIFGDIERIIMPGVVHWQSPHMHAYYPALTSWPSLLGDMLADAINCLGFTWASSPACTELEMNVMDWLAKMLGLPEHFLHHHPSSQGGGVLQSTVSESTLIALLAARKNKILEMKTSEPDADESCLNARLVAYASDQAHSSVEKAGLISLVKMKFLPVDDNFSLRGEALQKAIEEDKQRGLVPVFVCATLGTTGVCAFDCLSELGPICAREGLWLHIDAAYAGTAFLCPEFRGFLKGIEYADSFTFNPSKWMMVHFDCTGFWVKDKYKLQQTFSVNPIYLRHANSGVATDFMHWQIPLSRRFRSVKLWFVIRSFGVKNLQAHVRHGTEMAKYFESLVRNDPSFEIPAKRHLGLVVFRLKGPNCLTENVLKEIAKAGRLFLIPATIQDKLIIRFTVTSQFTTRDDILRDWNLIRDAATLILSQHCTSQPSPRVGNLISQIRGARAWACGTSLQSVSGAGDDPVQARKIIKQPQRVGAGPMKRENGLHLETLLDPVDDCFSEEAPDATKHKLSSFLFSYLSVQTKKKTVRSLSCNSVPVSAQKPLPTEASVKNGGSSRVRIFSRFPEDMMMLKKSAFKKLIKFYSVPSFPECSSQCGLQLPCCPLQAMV

non-mutated CFTR = molecular target: T3, non-mutated CFTR (Homo sapiens, UniProt P13569); test: Ussing chamber short-circuit current (ion transport via CFTR); assay type: cell-based; conditions: for short circuit current differential after addition of tritoqualine: tritoqualine 10 μM; for effect of Inh172 on cell potential: CFTR inh172 10 μM
T3 construct: host or cells: human epithelial cells (called glandular / lacrimal gland epithelial cells) grown on Snapwell filters
From the text: To investigate this action on CFTR modulation, the inventors used the Ussing chamber method, invented by the Dane Hans H. Ussing in the late 1950s. This technique makes it possible to study ionic exchanges across an epithelium, as it allows the tissue of interest to be kept alive for a few hours under controlled conditions of temperature and medium. The positioning of the tissue between two half-chambers makes it possible to define an apical compartment (corresponding to the lumen of the organ) and a basolateral compartment (corresponding to the blood compartment) and to investigate exchanges between these two compartments via the tissue.
This technique is used as a routine and is particularly well adapted for a pharmacological approach to ionic transport and to search for molecules of therapeutic interest in the context of ionic secretions of epithelial cells. It consists in measuring the transepithelial current (known as the short-circuit current and noted Ise). Ise is expressed in amperes to unit area of the epithelium (Ise in μA/cm^2). The cells are grown on a porous filter for 10 to 15 days at the liquid-liquid interface and then air-liquid interface in order to mimic conditions close to in vivo. The transepithelial resistance is measured regularly when culturing. The higher this resistance is (several hundred ohms), the more the epithelial tissue is junctive, polarised and therefore tight. At the air (apical side)-liquid (basolateral side) interface the epithelial cells polarise and form a tight mat which can be investigated with the Ussing chamber technique. A system with 6 Physiology Instrument® cuvettes allowing 6 experiments in parallel has been used.
The inventors have used USSING chambers to analyse the activity of tritoqualine on CFTR of glandular epithelial cells.
Typical protocols used for human epithelial cells expressing non-mutated CFTR:
Measurement of short circuit current in the presence of amiloride (ENaC channel inhibitor, 100 μM) followed by addition of 10 μM of the tritoqualine molecule and then addition of CFTR inh172 (10 μM, CFTR inhibitor) followed by addition of UTP (100 μM, validates the experiment by activating the calcium-sensitive Cl transport).
Measurement of short circuit current in the presence of amiloride (100 μM) and forskolin (0.05 μM activator of intracellular cAMP) then addition of 10 μM of the tritoqualine molecule then addition of CFTRinh172 (10 μM) then addition of UTP (100 μM).
Measurement of the short circuit current in the presence of CFTR Inh172 (10 μM) then addition of tritoqualine and forskolin (0.05 μM) then addition of UTP.
The inventors have prepared a 100 μM stock solution in DMSO. The compounds have been aliquoted per 100 μL and stored at −20° C.
Tritoqualine has been added to USSING cells at a dose of 10 μM in non-mutated cells FIG. 5.

[1] = cited from earlier work

T3 sequence (P13569 whole entry, change not shown): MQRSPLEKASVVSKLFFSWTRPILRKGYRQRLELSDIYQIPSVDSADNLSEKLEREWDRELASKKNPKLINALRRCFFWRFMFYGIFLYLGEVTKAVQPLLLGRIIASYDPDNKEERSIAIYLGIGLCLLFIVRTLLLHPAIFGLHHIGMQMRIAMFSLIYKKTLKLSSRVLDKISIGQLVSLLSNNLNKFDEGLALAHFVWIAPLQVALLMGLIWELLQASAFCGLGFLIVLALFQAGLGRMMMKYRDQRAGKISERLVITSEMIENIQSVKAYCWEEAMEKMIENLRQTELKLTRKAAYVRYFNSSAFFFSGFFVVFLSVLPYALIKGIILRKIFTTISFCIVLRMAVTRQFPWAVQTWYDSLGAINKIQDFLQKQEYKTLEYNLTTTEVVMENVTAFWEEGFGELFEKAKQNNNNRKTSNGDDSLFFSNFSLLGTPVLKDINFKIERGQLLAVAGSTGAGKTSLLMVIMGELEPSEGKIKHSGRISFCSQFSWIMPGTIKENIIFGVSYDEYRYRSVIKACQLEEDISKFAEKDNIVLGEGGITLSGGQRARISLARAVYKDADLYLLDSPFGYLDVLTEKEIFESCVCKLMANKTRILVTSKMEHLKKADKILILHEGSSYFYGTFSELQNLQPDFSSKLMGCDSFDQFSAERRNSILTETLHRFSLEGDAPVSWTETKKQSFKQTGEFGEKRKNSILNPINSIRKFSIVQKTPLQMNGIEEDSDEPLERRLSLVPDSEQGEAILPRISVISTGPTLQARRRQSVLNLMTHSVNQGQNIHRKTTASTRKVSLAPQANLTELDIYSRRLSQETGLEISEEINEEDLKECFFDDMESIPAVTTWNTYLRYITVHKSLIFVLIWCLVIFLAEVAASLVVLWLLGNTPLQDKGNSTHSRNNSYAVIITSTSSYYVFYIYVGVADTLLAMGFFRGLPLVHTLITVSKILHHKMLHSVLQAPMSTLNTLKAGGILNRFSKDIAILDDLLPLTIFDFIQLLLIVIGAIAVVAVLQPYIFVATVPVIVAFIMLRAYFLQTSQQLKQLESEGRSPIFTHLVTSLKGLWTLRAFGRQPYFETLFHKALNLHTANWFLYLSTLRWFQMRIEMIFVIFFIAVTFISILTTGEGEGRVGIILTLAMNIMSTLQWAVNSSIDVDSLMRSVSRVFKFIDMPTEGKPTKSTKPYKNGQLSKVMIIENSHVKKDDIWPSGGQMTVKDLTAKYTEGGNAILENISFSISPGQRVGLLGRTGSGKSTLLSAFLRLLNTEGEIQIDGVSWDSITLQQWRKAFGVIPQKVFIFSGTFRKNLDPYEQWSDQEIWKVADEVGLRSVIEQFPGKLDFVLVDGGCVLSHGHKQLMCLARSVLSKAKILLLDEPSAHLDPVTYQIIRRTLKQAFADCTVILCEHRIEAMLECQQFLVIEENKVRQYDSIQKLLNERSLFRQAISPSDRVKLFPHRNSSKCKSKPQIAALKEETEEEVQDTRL
T1 sequence (P25103 whole entry): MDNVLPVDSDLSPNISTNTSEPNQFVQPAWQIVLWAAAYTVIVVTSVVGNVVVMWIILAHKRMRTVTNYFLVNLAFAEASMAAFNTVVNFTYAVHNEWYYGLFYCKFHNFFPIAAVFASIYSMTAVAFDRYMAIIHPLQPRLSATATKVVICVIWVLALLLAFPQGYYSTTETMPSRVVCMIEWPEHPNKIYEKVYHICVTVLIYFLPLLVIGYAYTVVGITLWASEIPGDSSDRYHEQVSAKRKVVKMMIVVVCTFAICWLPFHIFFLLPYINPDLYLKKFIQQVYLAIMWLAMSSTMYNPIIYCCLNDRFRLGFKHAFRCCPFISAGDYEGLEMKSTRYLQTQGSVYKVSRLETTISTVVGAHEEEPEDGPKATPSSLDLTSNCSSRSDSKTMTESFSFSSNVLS

substance P: NK 1 agonist (supplier Sigma-Aldrich) (RPKPQQFFGLM-NH2; UniProt P20366 58-68, looked up)
CD63 present on the basophil (degranulation) (basophils; substance P at 10 μmoles, basophils of 2 patients): 70%

CCOc1c(N)c2c(c(OCC)c1OCC)C(C1c3c(cc4c(c3OC)OCO4)CCN1C)OC2=O (stereo not drawn) [tritoqualine, AMINO-7 TRIETHOXY-4,5,6 OXO-1 DIHYDRO-1,3 ISOBENZOFURANNYL-3)-1METHOXY-8METHYL-2METHYLENEDIOXY-6,7TETRAHYDRO-,2,3,4ISOQUINOLINE]
affinity (percent inhibition) on NK 1 receptor (NK 1 receptor): 97% | inhibitory action on histidine decarboxylase (histidine decarboxylase): very weak | degranulation after substance P in presence of tritoqualine (basophils; tritoqualine 10 pmoles (FIG. 10: 10 μM), then substance P, after 30 minutes, as with the negative control): around 7% | EC50 (non-mutated CFTR; apical pole, FIG. 2, read-out: EC50 activity, apical pole): 3.42 µM | EC50 (non-mutated CFTR; basal pole, FIG. 3, read-out: EC50, basal pole): 4.87 µM | short circuit current differential after addition of tritoqualine (non-mutated CFTR; non-mutated epithelial cells, apical side, increases from 16): more than 20 μA/cm^2 | short circuit current differential after addition of tritoqualine (non-mutated CFTR; non-mutated lacrimal gland epithelial cells, printed 'apical side' (second experiment), increases from 6.5): more than 7.5 μA/cm^2 | solubility in benzene and acetone ([1]; benzene and acetone): sparingly soluble | solubility in water ([1]; water): Insoluble

O=C(O)c1ccc(C=C2SC(=S)N(c3cccc(C(F)(F)F)c3)C2=O)cc1 [Inh172]
effect of Inh172 on cell potential (non-mutated CFTR; non-mutated epithelial cells, apical side): completely blocks | effect of Inh172 on cell potential (non-mutated CFTR; non-mutated lacrimal gland epithelial cells (second experiment)): completely blocks
